Results published in patent US10603369B2, “Combination vaccines with lower doses of antigen and/or adjuvant” (GlaxoSmithKline Biologicals SA, priority 2011, dated 2020).
≈ marks a conversion by molar mass, not a printed value.

What was measured:
[1] = Adsorption of TLR agonist to aluminium hydroxide adjuvant; type: physicochemical
physchem = settings: water

Cc1ccc2c(c1)nc(N)c1ncc(CCc3ccc(OCCOCCOCCC(F)(F)P(=O)(O)O)cc3C)cc12 [compound T]
adsorption to aluminium hydroxide [1]: adsorbs well | solubility (physchem): ~4 mg/mL (≈ 6.78 mM)
